In US20140107176A1, “METHOD OF MODULATING A PROSTATE CANCER CELL” (Agency for Science, Technology and Research, priority 2012, published 2014):

How the values were obtained:
Assay type in all cases: cell-based, human
[1] = system: VCaP cells; experiment: HDAC1, HDAC2, HDAC3 and EZH2 ChIP-qPCR in VCaP cells before and after DHT treatment; details: 100 nM DHT, 2 hrs
Method: FIG. 4. HDACs and EZH2 are recruited to AR binding sites. […] (B) Androgen-depleted VCaP cells were treated with either EtOH or 100 nM DHT for 2 hrs. The cells were then double crosslinked with DSG followed by formaldehyde. […] Error bars represent S.E.M of at least 3 independent experiments.
(§1) ChIP assay was performed as described previously (47). Briefly, VCaP cells were fixed with 1% formaldehyde (Sigma-Aldrich) for 10 minutes prior to harvesting. Next, the cells were resuspended in SDS lysis buffer containing protease inhibitors. The lysed cells were then sonicated shearing the chromatin into 500-1000 base pairs in length. After pre-clearing with rabbit IgG (Santa Cruz Biotechnology) for 2 hours, the chromatin was immunoprecipitation overnight with the corresponding antibodies and Sepharose beads A (Zymed). After washing the beads, the captured DNA was eluted and de-crosslinked at 65° C. overnight prior to purification with QIAquick spin PCR purification kit (Qiagen). Real-time quantitative Polymerase Chain Reaction (qPCR) was carried out using the KAPA SYBR FAST qPCR kit (Kapa Biosystems).
All ChIP-qPCR primer sequences can be found in FIG. 8. […] Specifically, cells were first fixed with 2 mM DSG (Pierce) for 45 minutes prior to formaldehyde fixation. […]

[2] = system: VCaP cells; experiment: AR and ERG ChIP-qPCR in VCaP cells after DHT stimulation; details: 100 nM DHT
Method: (§2) FIG. 1. Androgen stimulates distinct expression and chromatin binding profiles for AR and ERG in prostate cancer cells. Time course expression analysis of AR and ERG (A) mRNA and (B) protein levels in VCaP cells after stimulation with 10 nM DHT at various time points. Error bars represent S.E.M of at least 3 independent repeats. (C) Androgen stimulates AR and ERG binding to chromatin. Hormone depleted VCaP cells were treated with 100 nM DHT for 0, 2, or 18 hrs. Cells were cross-linked with formaldehyde and chromatin was immunoprecipitated with antibodies against AR or ERG. Immunoprecipitated DNA was quantified with qPCR for specific binding sites and a randomly selected genomic location as control (ctrl) region. Error bars represent S.E.M of at least 3 independent experiments.
as §1
All ChIP-qPCR primer sequences can be found in FIG. 8. […] Specifically, cells were first fixed with 2 mM DSG (Pierce) for 45 minutes prior to formaldehyde fixation. Antibodies that were used for ChIP analysis include anti-AR (sc-815x), anti-ERG (sc-353), anti-HDAC3 (sc-11417) from Santa Cruz Biotechnology, anti-HDAC1 (ab7028-50), anti-HDAC2 (ab7029-50) from Abcam, and anti-EZH2 (39933) from Active Motif.

[3] = system: VCaP cells; experiment: Time course expression analysis of AR and ERG mRNA and protein in VCaP cells after DHT stimulation; details: 10 nM DHT
Method: as §2
The human prostate cancer cell line, VCaP (American Type Culture Collection), was maintained in DMEM supplemented with 10% fetal bovine serum (FBS), sodium pyruvate, sodium bicarbonate, and penicillin/streptomycin at 37° C. under 5% CO2. Unless otherwise stated, for experiments requiring DHT (Tokyo Chemical Industry) treatment, VCaP cells were grown for 24 hours prior to stimulation in phenol red free DMEM supplemented with 10% charcoal-dextran stripped fetal bovine serum (CDFBS), sodium pyruvate, sodium bicarbonate, and penicillin/streptomycin.
Cells were harvested and total RNA was collected in TRI-reagent (Sigma) and purified with PureLink™ RNA Mini Kit (Invitrogen). Reverse transcription of RNA to cDNA was carried out using M-MLV reverse transcriptase (Promega). RNA expression levels were measured using quantitative PCR and normalized to GAPDH. The primers for cDNA quantification can be found in FIG. 9.
The antibodies used for western blot analysis include anti-AR (sc-816), anti ERG (sc-354), anti-Vinculin (sc-25336) from Santa Cruz, anti-AR (AR441) from Labvision, anti-HDAC1 (#05-100), anti-HDAC2 (#05-814) from Millipore, anti-HDAC3 (#3949) and anti-EZH2 (#3147) from Cell Signaling Technology.

[4] = system: EZH2; experiment: Transcript levels of PSA and FKBP5 in VCaP cells after blocking EZH2 with DZNep (RT-qPCR); details: 3 μM DZNep, 24 or 48 hrs
Method: (§3) FIG. 6. Co-recruitment of ERG, HDACs, and EZH2 to ARBS attenuates AR-dependent transcription. […] (C) VCaP cells grown in full serum (top) or depleted with hormones and treated with 10 nM DHT (bottom) were subjected to varying concentrations of TSA for 24 hours. Total RNA from the treated cells were then harvested and converted to cDNA before quantifying for gene expression levels by qPCR. GAPDH was used as an internal normalization control. Error bars represent S.E.M of at least 3 independent experiments. (D) VCaP cells grown in full serum (top) or depleted with hormone and treated with 10 nM DHT to 8 hours (bottom) were subjected to 3 μM DZNep treatment for 24 (top) or 48 (bottom) hrs. Total RNA was extracted and processed as described in FIG. 6C. Error bars represent S.E.M of at least 3 independent experiments.
(§4) The human prostate cancer cell line, VCaP (American Type Culture Collection), was maintained in DMEM supplemented with 10% fetal bovine serum (FBS), sodium pyruvate, sodium bicarbonate, and penicillin/streptomycin at 37° C. under 5% CO2. […]
(§5) Cells were harvested and total RNA was collected in TRI-reagent (Sigma) and purified with PureLink™ RNA Mini Kit (Invitrogen). […] RNA expression levels were measured using quantitative PCR and normalized to GAPDH. The primers for cDNA quantification can be found in FIG. 9. […]

[5] = system: HDACs; experiment: Transcript levels of PSA and FKBP5 in VCaP cells after blocking HDACs with TSA (RT-qPCR); details: 24 hours
Method: as §3, §4, §5

[6] = system: VCaP cells; experiment: Flow cytometry of siRNA transfected VCaP cells (subG1 cell death, BrdU proliferation); details: silencing of VCL
Method: (§6) FIG. 7. ERG, HDACs, and EZH2 promote cell invasiveness and inhibit epithelial differentiation by antagonizing AR-dependent transcription of cell adhesion molecules. […] Oncomine Molecular Concept Map analysis was performed to compare ERG-associated (5 kb from TSS) androgen induced genes (>2 fold) that were identified in our study against clinical prostate cancer gene signatures available in the Oncomine database. The criteria for significant associations between node is defined as OD>=2; p-value <le-4. (B) Boxplot showing the relative mRNA expression of VCL in clinical prostate samples from the Yu et al (49) study, which has been deposited in the Oncomine database. […] (G) The effect of AR and ERG silencing on VCL gene expression was analyzed as described in FIG. 3D-E. Error bars represent S.E.M of at least 3 independent experiments. (H) The effect of TSA on the androgen-dependent gene regulation of VCL was analyzed as described in FIG. 6C. […] (I) The effect of DZNep on the androgen-dependent gene regulation of VCL was analyzed as described in FIG. 6D. […] The number of cells per high power field (HPF) that passed through the transwell was counted. […] (K) The effect of VCL suppression on cancer cell survival was assessed by flow cytometry. siRNA transfected cells were fixed prior staining with propidium iodide for flow analysis. […]

[7] = system: VCaP cells; experiment: Matrigel invasion assay with siRNA-treated VCaP cells; details: silencing of VCL, 48 hrs
Method: as §6

## C[C@]12CCC(=O)C[C@@H]1CC[C@@H]1[C@@H]2CC[C@]2(C)[C@@H](O)CC[C@@H]12 [DHT]
[1]
  recruitment of HDAC1, HDAC2, HDAC3 and EZH2 to AR and ERG co-localized binding sites: in most cases enhanced
[2]; 2 hrs
  AR binding to the enhancer AR binding site (ARBS) of PSA: recruited strongly
  ERG recruitment to the ARBS of PSA and the ERGBS associated with PLA1A: recruited
[2]; 18 hrs
  AR binding to the enhancer AR binding site (ARBS) of PSA: reduced significantly
  ERG recruitment to the ARBS of PSA and the ERGBS associated with PLA1A: further enhanced
[3]
  mRNA and protein levels of ERG: up-regulated
  time of peak ERG RNA level: 6 h
  time of peak ERG protein level: 12 h
[3]; across time
  AR protein level: remained relatively constant
  level of AR mRNA: repressed

## Nc1nccc2c1ncn2[C@@H]1C=C(CO)[C@@H](O)[C@H]1O [DZNep, 3-deazaneplanocin A]
[4]
  expression of PSA and FKBP5: enhanced

## CC(/C=C/C(=O)NO)=C\[C@@H](C)C(=O)c1ccc(N(C)C)cc1 [TSA, Trichostatin A]
[5]; high concentrations of TSA
  PSA and FKBP5 transcript levels: repressive
[5]; low concentrations of TSA
  PSA and FKBP5 transcript levels: enhanced

## siVCL: siRNA against VCL synthesized from 1stBase, rCrUrGrGrCrUrUrGrCrArGrArUrCrCrArArArUrUrU [SEQ ID NO.: 5] (CUGGCUUGCAGAUCCAAAUUU; RNA, backbone not given here)
[6]
  cell death (subG1 phase): not due to differences
  cell proliferation (S phase, BrdU): not due to differences
[7]
  invasiveness of VCaP cells: increased
